{"source": "patent US20170326356A1", "about": "“METHODS FOR TREATING PSYCHIATRIC DISORDERS” (priority 2016, published 2017)", "key": {"[1]": {"tested_on": "offspring of pregnant dams", "experiment": "Analysis of cortical patches (absence of SATB2 or TBR1 expression) in offspring after maternal immune activation", "assay_type": "in vivo, mice", "protocol": "(§1) Mice were mated overnight and females were checked daily for the presence of seminal plugs, noted as embryonic day 0.5 (E0.5). On E12.5, pregnant female mice were weighed and injected with a single dose (20 mg/kg i.p.) of poly(I:C) (Sigma Aldrich, USA) or PBS vehicle. Each dam was returned to its cage and left undisturbed until the birth of its litter. All pups remained with the mother until weaning on postnatal day 21 (P21), at which time mice were group housed at a maximum of 5 per cage with same-sex littermates. For checking the effect of poly(I:C) administration at different time points during pregnancy, the present inventors injected poly(I:C) into pregnant dams on E12.5, E15.5, or E18.5.\nFor cryosectioning, animals were intracardially perfused, and the brain was dissected out, fixed with 4% paraformaldehyde in PBS overnight at 4° C., and cryoprotected in 30% sucrose solution. The left hemisphere was marked with a needle and the sections were coronally sliced at 40 μm using a cryostat (Leica, USA). For vibratome sectioning, animals were intracardially perfused, and the brain was fixed with 4% paraformaldehyde in PBS overnight at 4° C. The brains were coronally sliced at 50 μm with a Leica VT1000S vibratome (Leica, USA).\nSlices were permeabilized with blocking solution containing 0.4% Triton X-100 and 2% goat serum in PBS for 1 h at room temperature (RT) and then incubated with anti-rabbit-TBR1 (ab31940, Abcam, USA), anti-mouse-SATB2 (ab51502, Abcam, USA), anti-rabbit-PV (PV27, Swant, Switzerland), anti-rabbit-VIP (20077, Immunostar, USA), anti-mouse-NeuN (MAB377X, Millipore, USA), or anti-rabbit-c-Fos (sc-7270, Santa Cruz, USA) antibodies overnight at 4° C. […]\nCortical patches were identified by the absence of SATB2 or TBR1 expression. Spatial locations of the cortical patches were determined based on their distance from the midline of the brain and the layer structures of the cortex. […] The size of the cortical patches was calculated using Zen software (Carl Zeiss, Germany)."}, "[2]": {"tested_on": "offspring of pregnant dams", "experiment": "Ultrasonic vocalizations of pups", "assay_type": "in vivo, mice", "protocol": "as §1\nOn postnatal day 9, mouse pup ultrasonic vocalizations (USVs) were detected for 3 min using an Ultra-Sound Gate CM16/CMPA microphone (AviSoft, Germany) and SAS Prolab software (AviSoft, Germany) in a sound attenuation chamber under stable temperature (19-22° C.) and light control (15 lux)."}}, "note": "Entries after “also recorded” stand apart in the source; their conditions may differ."}
{"substance": "polyinosinic:polycytidylic acid [poly(I:C)]", "values": [{"measurement": "offspring with cortical patches in the S1", "setting": "[1]; dams injected at E12.5, 20 mg/kg i.p.", "value": 77, "unit": "%"}, {"measurement": "offspring with cortical patches in the S1", "setting": "[1]; dams injected at E15.5", "value": 13, "unit": "%"}, {"measurement": "offspring with cortical patches in the S1", "setting": "[1]; dams injected at E18.5", "value": "none"}, {"measurement": "USV calls made by pups upon separation from mothers at P9", "setting": "[2]; dams injected at E12.5, versus PBS offspring", "value": "emitted more ultrasonic vocalization (USV) calls"}, {"measurement": "USV calls made by pups upon separation from mothers at P9", "setting": "[2]; dams injected at E15.5 or E18.5", "value": "This finding was not observed; also recorded: such an increase was not observed"}]}
